Laboratory results published in patent publication US20230181614A1, “ADMINISTRATION OF CITICOLINE TO IMPROVE COGNITIVE PERFORMANCE, ATTENTIONAL PERFORMANCE, AND MOTOR FUNCTION” (KYOWA HAKKO BIO CO., LTD., priority 2014, published 2023).

Tests used:
[1] = system: Healthy subjects, ages 13-18; experiment: Positive and Negative Affect Scale for Children (PANAS-C); format: in vivo, human
Excerpt: Study participants were screened by telephone prior to study enrollment. Healthy subjects, ages 13-18, with no significant medical conditions and no history of co-morbid psychiatric disorder, current Axis I or II diagnosis, or previous participation in a pharmacotherapeutic trial, were selected. Use of any psychotropic medication or any previous head injury resulting in loss of consciousness for 5 or more minutes were used as exclusion criteria. While no participant met criteria for a neuropsychiatric disorder at enrollment, clinical assessments were still completed throughout the study to evaluate changes in mood state. In addition, self-reports of sleep habits, lifestyle, and exercise routines were also administered at baseline as well as at each study visit to assess changes in health habits during study participation. Following the completion of Visit 1 assessment, participants were given their 28-day supply of citicoline (250 mg or 500 mg) or placebo, which was randomly assigned. They were instructed to take one capsule a day every day for the next 28 days. Visit 2 occurred fourteen days after Visit 1. At Visit 2, the remaining study pills were counted and participant dosage calendars were checked to ensure compliance with the protocol. Additional neuropsychological measures and clinical assessments were administered during this visit. Participants returned for Visit 3 fourteen days later, on the 28th day of their study participation. The pill bottle and the dosage calendar were collected from each participant. Urine and blood were again obtained. Participants also participated in similar clinical and neuropsychological testing and clinical measures that were given during visit 1. The […] is a self-report questionnaire on which participants rate to what extent they are currently experiencing a variety of positive and negative emotions such as “excited” and “mad.” The PANAS was administered during each of the three visits to assess participant affect prior to taking the study drug as well as after taking the study drug over a period of 28 days.

[2] = system: Healthy subjects, ages 13-18; experiment: California Verbal Learning Test I and II (CVLT); format: in vivo, human; conditions: for CVLT I & II List A Long Delay V1, Mean / CVLT I & II List A Short Delay V1, Mean / CVLT I & II List A Trial 1 V1, Mean / CVLT I & II List A Trial 5 V1, Mean / CVLT I & II List A Trials 1-5 V1, Mean / CVLT I & II List B V1, Mean: Visit 1; for V3-V1 CVLT I & II Difference List A Long Delay, Mean / V3-V1 CVLT I & II Difference List A Short Delay, Mean / V3-V1 CVLT I & II Difference List A Trial 1, Mean / V3-V1 CVLT I & II Difference List A Trial 5, Mean / V3-V1 CVLT I & II Difference List A Trials 1-5, Mean / V3-V1 CVLT I & II Difference List B Trial 1, Mean: Visit difference score; for CVLT I & II List A Long Delay V3, Mean / CVLT I & II List A Short Delay V3, Mean / CVLT I & II List A Trial 1 V3, Mean / CVLT I & II List A Trial 5 V3, Mean / CVLT I & II List A Trials 1-5 V3, Mean / CVLT I & II List B V3, Mean: Visit 3
Excerpt: Study participants were screened by telephone prior to study enrollment. Healthy subjects, ages 13-18, with no significant medical conditions and no history of co-morbid psychiatric disorder, current Axis I or II diagnosis, or previous participation in a pharmacotherapeutic trial, were selected. Use of any psychotropic medication or any previous head injury resulting in loss of consciousness for 5 or more minutes were used as exclusion criteria. While no participant met criteria for a neuropsychiatric disorder at enrollment, clinical assessments were still completed throughout the study to evaluate changes in mood state. In addition, self-reports of sleep habits, lifestyle, and exercise routines were also administered at baseline as well as at each study visit to assess changes in health habits during study participation. Following the completion of Visit 1 assessment, participants were given their 28-day supply of citicoline (250 mg or 500 mg) or placebo, which was randomly assigned. They were instructed to take one capsule a day every day for the next 28 days. Visit 2 occurred fourteen days after Visit 1. At Visit 2, the remaining study pills were counted and participant dosage calendars were checked to ensure compliance with the protocol. Additional neuropsychological measures and clinical assessments were administered during this visit. Participants returned for Visit 3 fourteen days later, on the 28th day of their study participation. The pill bottle and the dosage calendar were collected from each participant. Urine and blood were again obtained. Participants also participated in similar clinical and neuropsychological testing and clinical measures that were given during visit 1. […] Subjects are asked to remember a 16-item word list, which is presented on five trials. After each trial, the subject is asked to recall all of the words that they can remember. A second list is then presented to provide an interference condition. The subject is then asked to recall the first word list. After a temporal delay, the subject is again asked to recall the first word list. Test results provide scores for assessing verbal learning, strength of memory following interfering tasks, proactive interference, accuracy of recognition memory and storage versus retrieval of newly learned information. The CVLT was administered at all three visits.

SMILES: C[N+](C)(C)CCOP(=O)(O)OP(=O)([O-])OC[C@H]1O[C@@H](n2ccc(N)nc2=O)[C@H](O)[C@@H]1O [citicoline, Cytidine 5′-diphosphocholine]
- PANAS-C Negative Score, Mean ([1]; 250 mg/day, V1 (baseline)): 23.15
- PANAS-C Positive Score, Mean ([1]; 250 mg/day, V1 (baseline)): 45.74
- PANAS-C Negative Score, Mean ([1]; 250 mg/day, V3 (day 28)): 19.81
- PANAS-C Positive Score, Mean ([1]; 250 mg/day, V3 (day 28)): 41.93
- PANAS-C Negative Score, Mean ([1]; 250 mg/day, V3-V1): -3.33
- PANAS-C Positive Score, Mean ([1]; 250 mg/day, V3-V1): -3.81
- PANAS-C Negative Score, Mean ([1]; 500 mg/day, V1 (baseline)): 21.55
- PANAS-C Positive Score, Mean ([1]; 500 mg/day, V1 (baseline)): 43.30
- PANAS-C Negative Score, Mean ([1]; 500 mg/day, V3 (day 28)): 18.00
- PANAS-C Positive Score, Mean ([1]; 500 mg/day, V3 (day 28)): 41.78
- PANAS-C Negative Score, Mean ([1]; 500 mg/day, V3-V1): -3.55
- PANAS-C Positive Score, Mean ([1]; 500 mg/day, V3-V1): -1.52
- PANAS-C positive emotional attributes, between groups ([1]; Placebo vs 500 mg/day, visit 3, p=0.39): No significant effect
- CVLT I & II List A Long Delay V1, Mean ([2]; 250 mg/day group): 10.26
- CVLT I & II List A Short Delay V1, Mean ([2]; 250 mg/day group): 10.56
- CVLT I & II List A Trial 1 V1, Mean ([2]; 250 mg/day group): 6.11
- CVLT I & II List A Trial 5 V1, Mean ([2]; 250 mg/day group): 12.33
- CVLT I & II List A Trials 1-5 V1, Mean ([2]; 250 mg/day group): 50.52
- CVLT I & II List B V1, Mean ([2]; 250 mg/day group): 5.78
- V3-V1 CVLT I & II Difference List A Long Delay, Mean ([2]; 250 mg/day group): 0.81
- V3-V1 CVLT I & II Difference List A Short Delay, Mean ([2]; 250 mg/day group): 1.04
- V3-V1 CVLT I & II Difference List A Trial 1, Mean ([2]; 250 mg/day group): 1.63
- V3-V1 CVLT I & II Difference List A Trial 5, Mean ([2]; 250 mg/day group): 0.52
- V3-V1 CVLT I & II Difference List A Trials 1-5, Mean ([2]; 250 mg/day group): 3.11
- V3-V1 CVLT I & II Difference List B Trial 1, Mean ([2]; 250 mg/day group): 0.48
- CVLT I & II List A Long Delay V3, Mean ([2]; 250 mg/day group): 11.07
- CVLT I & II List A Short Delay V3, Mean ([2]; 250 mg/day group): 11.59
- CVLT I & II List A Trial 1 V3, Mean ([2]; 250 mg/day group): 7.74
- CVLT I & II List A Trial 5 V3, Mean ([2]; 250 mg/day group): 12.85
- CVLT I & II List A Trials 1-5 V3, Mean ([2]; 250 mg/day group): 53.63
- CVLT I & II List B V3, Mean ([2]; 250 mg/day group): 6.26
- CVLT I & II List A Long Delay V1, Mean ([2]; 500 mg/day group): 9.79
- CVLT I & II List A Short Delay V1, Mean ([2]; 500 mg/day group): 10.25
- CVLT I & II List A Trial 1 V1, Mean ([2]; 500 mg/day group): 6.58
- CVLT I & II List A Trial 5 V1, Mean ([2]; 500 mg/day group): 11.83
- CVLT I & II List A Trials 1-5 V1, Mean ([2]; 500 mg/day group): 49.04
- CVLT I & II List B V1, Mean ([2]; 500 mg/day group): 6.67
- V3-V1 CVLT I & II Difference List A Long Delay, Mean ([2]; 500 mg/day group): 1.13
- V3-V1 CVLT I & II Difference List A Short Delay, Mean ([2]; 500 mg/day group): 0.96
- V3-V1 CVLT I & II Difference List A Trial 1, Mean ([2]; 500 mg/day group): 1.00
- V3-V1 CVLT I & II Difference List A Trial 5, Mean ([2]; 500 mg/day group): 0.88
- V3-V1 CVLT I & II Difference List A Trials 1-5, Mean ([2]; 500 mg/day group): 3.75
- V3-V1 CVLT I & II Difference List B Trial 1, Mean ([2]; 500 mg/day group): -0.33
- CVLT I & II List A Long Delay V3, Mean ([2]; 500 mg/day group): 10.92
- CVLT I & II List A Short Delay V3, Mean ([2]; 500 mg/day group): 11.21
- CVLT I & II List A Trial 1 V3, Mean ([2]; 500 mg/day group): 7.58
- CVLT I & II List A Trial 5 V3, Mean ([2]; 500 mg/day group): 12.71
- CVLT I & II List A Trials 1-5 V3, Mean ([2]; 500 mg/day group): 52.79
- CVLT I & II List B V3, Mean ([2]; 500 mg/day group): 6.33
